Results as given in patent US20230225991A1, “COMPOUNDS FOR USE IN THE TREATMENT OF ACUTE INTERMITTENT PORPHYRIA” (VESTLANDETS INNOVASJONSSELSKAP AS, priority 2019, published 2023).
Entries after “also recorded” stand apart in the source; their conditions may differ.

Key:
WT-HMBS [1] = target: T1, WT-HMBS (Homo sapiens, UniProt P08397); assay: HMBS activity after pre-incubation with compound at 70° C.; format: biochemical; details: pre-incubation with compound at 70° C. 20 min, then standard assay 100 μM PBG at 37° C., 84 μM compound, 2% DMSO
T1 construct: Full-length HMBS was cloned into pET-28a(+)-TEV vector and transformed into BL21 (DE3) cells for expression; 6xHis (N, cleaved yes); TEV protease cleavage site (N, cleaved yes); made in house; host or cells: E. coli BL21 (DE3)
T1 sequence (P08397 1-361): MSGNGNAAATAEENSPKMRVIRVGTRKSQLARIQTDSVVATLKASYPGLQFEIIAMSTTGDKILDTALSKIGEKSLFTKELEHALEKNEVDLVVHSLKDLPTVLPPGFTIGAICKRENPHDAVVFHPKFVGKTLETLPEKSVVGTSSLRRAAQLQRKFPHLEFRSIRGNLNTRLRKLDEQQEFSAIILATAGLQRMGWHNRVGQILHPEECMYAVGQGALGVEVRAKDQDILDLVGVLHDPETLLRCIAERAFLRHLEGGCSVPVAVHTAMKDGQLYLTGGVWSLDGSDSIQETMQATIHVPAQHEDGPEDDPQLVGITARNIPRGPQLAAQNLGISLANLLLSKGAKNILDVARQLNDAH
Experimental: The effect of the compounds on the stability of HMBS activity was assayed by pre-incubating the HMBS (4-5 μg) in 50 mM HEPES pH 8.2, 84 μM compound and 2% DMSO for 20 min at 70° C., and then placed on ice for 5 min. The enzymatic activity at 37° C. was subsequently measured as reported previously (Bustad et al., Bioscience reports 2013; 3 3(4)). Controls without compound but with equal concentration of DMSO were included. The remaining activity in the presence of compounds was normalized relative to DMSO-control (relative activity). […] USA, www.graphpad.com.
(§1) An enzymatic assay was performed to investigate the effect of compound BG-1 on the activity and conformational stability of HMBS. HMBS activity of the purified enzyme was measured in the absence and presence of compound BG-1 (at 84 μM) at standard conditions (37° C.) but also after pre-incubation at 70° C. for 20 min based on the high thermal stability of WT-HMBS.

[2] = tested on: Hmbs-deficient T1/T2−/− mice; assay: Mouse trial T1/T2-A, phenobarbital-induced biochemical acute attack
HMBS = target: T2, HMBS (Homo sapiens, UniProt P08397); assay: Octet RED96 binding (S0.5); set-up: Full-length HMBS was cloned into pET-28a(+)-TEV vector and transformed into BL21 (DE3) cells for expression; 6xHis (N, cleaved yes); TEV protease cleavage site (N, cleaved yes); made in house; host or cells: E. coli BL21 (DE3); details: sigmoidal binding isotherm, SSA biosensors, biotinylated HMBS; read-out: S0.5 (concentration for half-maximal binding), Octet
T2 sequence (P08397 1-361): T1 sequence (P08397 1-361)
Experimental: The enzyme used in the binding assays using the Octet RED96 was expressed using a new construct with an N-terminal 6×HIS affinity tag and a TEV protease cleavage site. Full-length HMBS was cloned into pET-28a(+)-TEV vector and transformed into BL21 (DE3) cells for expression. Expression was done in Terrific Broth medium with IPTG induction. Cells were cultured 16 h at 20° C. with 220 rpm shaking. After harvesting, the cells were lysed with sonication, and standard affinity purification was performed using Ni-NTA affinity matrix. Protein was eluted with 20 mM HEPES, 150 mM NaCl (gel filtration buffer), pH 8 supplemented with 400 mM imidazole. […]
Octet RED96 system (ForteBio Biologics by Molecular Devices, LLC., San Jose, Calif.) with super streptavidin (SSA) biosensors was used as an additional method for determining the Kd-value for the binding of the compounds. […] Triplicates for the concentration series of the compounds were measured, and double reference subtraction was applied for data analysis based on the steady-state kinetics with equilibrium binding signal (Req) using ForteBio Data analysis 9.0. […]
The binding of compounds BG-1 and BG-2 to HMBS was analyzed by surface plasmon resonance (SPR) and response units from concentration-dependent steady state measurements were analyzed assuming a 1:1 binding model. […]

WT-HMBS [3] = target: T1, WT-HMBS; assay: Enzymatic activity assay of recombinant HMBS, standard conditions; format: biochemical; details: 100 μM PBG at 37° C., 84 μM compound, 2% DMSO; relative to DMSO control
Experimental: The standard enzymatic activity of recombinant WT-HMBS was assayed at 37° C. as reported previously (Bustad et al., Bioscience reports, 2013; 33(4)). Compounds were added at a concentration of 84 μM. Absorbance of uroporphyrinogen I was determined at 405 nm. The enzyme activity in the presence of the compounds was normalized relative to DMSO-control (relative activity).
as §1

## O=Cc1cc(Cc2ccccc2Cl)cc([N+](=O)[O-])c1O [BG-1]
WT-HMBS [1]
  Relative activity, pre-inc. at 70° C: 1.01 ± 0.06
[2]; 10 mg/kg/day oral gavage, 12 days, behavior and organ appearances
  Toxicity in treated mice: No apparent toxicity; also recorded: No toxic effect was registered
[2]; 10 mg/kg/day, 12 days, compared to non-treated Hmbs-deficient mice
  HMBS protein levels or activity in erythrocytes or liver: did not cause any significant change
[2]; 10 mg/kg/day, day 12, compared to non-treated mice
  Urinary levels of ALA: slight decreasing tendency
HMBS
  Kd: 83 ± 7 µM
WT-HMBS [3]
  Relative activity, standard: 0.98 ± 0.06
